The text below walks through data of patent US20150320756A1, “TREATMENTS OF COCCIDIOSIS WITH INTRAMUSCULAR TRIAZINE COMPOSITIONS” (CEVA SANTE ANIMALE, priority 2012, published 2015).

What all share (type): in vivo
Series [1] is described as follows: Local and general tolerance of intramuscular toltrazuril in 2 day-old piglets (Example B). The conditions noted are these: all tested doses (i.m. 20 and 40 mg/kg). The procedure: (§1) Protocol • Group 1: 10 piglets 2 days old were injected with once intramuscularly dose of toltrazuril C629 (Dose=20 mg toltrazuril per kg bodyweight—equivalent to 0.4 mL/Kg bodyweight) on SD0 • Group 2: 11 piglets 2 days old were injected with once intramuscularly dose of toltrazuril C629 (Dose=40 mg toltrazuril per kg bodyweight a—equivalent to 0.8 mL/kg bodyweight) on SD0 • Group 3: 9 piglets 2 days old were dosed orally with the standard commercial formulation of toltrazuril Cevazuril® (Dose=20 mg toltrazuril per kg bodyweight—equivalent to 0.4 mL/Kg bodyweight) on SD0. • Group 4: 8 piglets, left untreated.
(§2) All four (4) groups of piglets were injected on SD0 with iron injection (Gleptosil®) at the dose rate of 1 ml per piglet. 3 days after treatment (on SD3), the piglets were orally challenged with a characterised strain of Isospora suis.
(§3) The following study parameters were used to assess the efficacy of the test products: • Local and general tolerance (for Groups 1 and 2) • Occurrence of diarrhoea and faecal consistency • Oocyst excretion • Bodyweight development • Serum concentrations of toltrazuril and its metabolite toltrazuril sulfone (e.g ponazuril) in Group 1, 2 and 3.

Series [2] can be described thus: Bodyweight development of piglets on a farm with known history of coccidiosis (Example A). The protocol: (§4) This target animal safety and efficacy study was conducted in a farm with known history of cocciodiosis. The main objective was to study the safety and efficacy of intramuscular injection of toltrazuril in comparison to the standard oral application. • Group 1: 8 piglets 3 days old were injected by a single intramuscular dose of toltrazuril (Dose=20 mg toltrazuril per kg bodyweight equivalent to 0.4 mL/kg bodyweight) on SD0. • Group 2: 8 piglets 3 days old were injected by one intramuscular dose of toltrazuril (60 mg toltrazuril per kg bodyweight equivalent to 1.2 mL/Kg bodyweight) on SD0 • Group 3: 8 piglets 3 days old were dosed orally with the standard commercial formulation of toltrazuril Cevazuril® (Dose=20 mg toltrazuril per kg bodyweight equivalent to 0.4 mL/Kg bodyweight) on SD0 • Group 4: 12 piglets 3 days old, left untreated.
(§5) All four (4) groups of piglets were injected on SD0 with iron (Gleptosil®) at the dose rate of 1 ml per piglet.

The nature of series [3]: Local and general tolerance of a single intramuscular injection of toltrazuril in 3-day old piglets (Example A). The protocol:
as §4, §5

Series [4] can be described thus: Pharmacokinetics: serum concentrations of toltrazuril and toltrazuril sulfone in 2 day-old piglets (Example B). The protocol: as §1, §2, §3
Another series relates to Isospora suis. Nature of the series: Anti-coccidial efficacy in piglets orally challenged with Isospora suis (Example B). The procedure:
as §1, §2, §3

Where [5] appears, read: G1, G2: single i.m. 20 or 40 mg/kg on SD0, Isospora suis challenge on SD3.

In the case of `Cc1cc(-n2c(=O)[nH]c(=O)n(C)c2=O)ccc1Oc1ccc(SC(F)(F)F)cc1` [toltrazuril], the Tolerance result in series [1] was “well tolerated”. Further, the “Bodyweight gain versus control non treated piglets” value in series [2] (intramuscularly treated piglets, at SD0+29 days) is recorded as “+2 kg”. Further, the Bodyweight development result in series [2] (single i.m. 20 or 60 mg/kg, 3-day old piglets) is listed as “normal”. For the same compound, the “Time to disappearance of local reaction post injection” value in series [3] (piglets injected i.m. with 1.2 mL/kg bodyweight) is “less than 1 week”. For the same compound, the “Local reaction (oedema)” value in series [3] (piglets injected i.m. with 1.2 mL/kg bodyweight (60 mg/kg)) is given as “limited local reaction (Oedema) in some piglets”. In addition, the General tolerance entry in series [3] (single intramuscular doses up to 60 mg/kg, 3-day old piglets) is listed as “well tolerated”. For the same compound, the Pain after injection entry in series [3] (single intramuscular injection, 3-day old piglets) is reported as “No pain”. Besides, the Absorption result in series [4] (after intramuscular application, piglets) is on record as “well absorbed”. For the same compound, in series [4] (metabolite after toltrazuril 20 mg/kg oral vs 20 or 40 mg/kg i.m.), the “Toltrazuril sulfone (ponazuril) kinetics, oral (G3) versus intramuscular (G1 and G2)” value was “not statistically different”. The “Serum level of toltrazuril sulfone” value in series [4] (upon intramuscular injection of toltrazuril (FIGS. 4 and 5)) was “rapid and sustained”. In the series on Isospora suis (setting [5]), the Fecal consistency entry is “unchanged” and the Oocyst excretion entry was “No oocyst excretion was observed”. In addition, in the series on Isospora suis (G1, G2: single i.m. 20 or 40 mg/kg, infected piglets), the “Weight gain versus control animals (G4)” value is given as “gained more weight than the control animals”.
